Publication PMC9465710, “Identification of a BAZ2A-Bromodomain Hit Compound by Fragment Growing” (ACS Medicinal Chemistry Letters, 2022)

Biological target: T1, BAZ2A bromodomain (Homo sapiens, UniProt Q9UIF9)
T1 construct: made in house
T1 sequence (Q9UIF9 1793-1897 limits assumed): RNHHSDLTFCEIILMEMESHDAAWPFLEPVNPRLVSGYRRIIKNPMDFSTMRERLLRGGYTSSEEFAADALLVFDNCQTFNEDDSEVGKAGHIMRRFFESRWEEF
Test: AlphaScreen competition binding assay (BAZ2A bromodomain binding to acetylated peptide)
Conditions: not given
Procedure: The 36 selected molecules were tested by AlphaScreen at single doses in duplicate. Six molecules (compounds 8, 9, 11, 14, 18, and 25) decreased binding of BAZ2A bromodomain to the acetylated peptide by at least 50% when tested at 500 μM. […]
AlphaScreen assay was conducted as detailed in [11]. […]

ligand efficiency (LE)	lipophilic ligand efficiency (LLE)	Structure (SMILES)
0.29 kcal/mol per heavy atom	1.9	CCc1c(-c2csc(N3CCNCC3)n2)[nH]c(C)c1C(C)=O [Compound 47]
0.31 kcal/mol per heavy atom	2.4	CCc1c(-c2csc(N=C(N)N)n2)[nH]c(C)c1C(C)=O [Compound 25]

Same assay, conditions: AlphaScreen dose-response

IC50	Structure (SMILES)
33.3 ± 0.4 µM	CCc1c(-c2csc(N3CCNCC3)n2)[nH]c(C)c1C(C)=O [Compound 47]
> 100 µM	CCc1c(-c2csc(C3CCCN3C(N)=O)n2)[nH]c(C)c1C(C)=O (centres unmarked) [Compound 58]
12.6 ± 1.4 µM	Cc1c[nH]nc1CN1CCN(c2nc(-c3[nH]c(C)c4c3CCCC4=O)cs2)CC1 [Compound 98]
> 200 µM	NC1CCCN(S(=O)(=O)c2cccc3cnccc23)C1 (centres unmarked) [Compound 8]
38.9 ± 2 µM	CC(=O)c1c(C)[nH]c(-c2csc(N3CCNCC3)n2)c1CCC(F)(F)F [Compound 77]
49.3 ± 5.7 µM	CCc1c(-c2csc(N3CCN(Cc4ccnn4CC(C)C)CC3)n2)[nH]c(C)c1C(C)=O [Compound 97]
74.3 ± 4.7 µM	Cc1[nH]c(-c2csc(-c3cc[nH]n3)n2)c2c1C(=O)CCC2 [Compound 69]
12.5 ± 0.4 µM	CC(=O)c1c(C)[nH]c(-c2csc(N3CCNCC3)n2)c1CCC(C)C [Compound 79]
> 100 µM	CCc1c(-c2csc(Cc3ccc(N)cc3)n2)[nH]c(C)c1C(C)=O [Compound 60]
> 100 µM	CCc1c(-c2csc(N3CCN(Cc4cc5n(n4)CCC5)CC3)n2)[nH]c(C)c1C(C)=O [Compound 86]
> 200 µM	O=S(=O)(NC1CCNC1)c1cccc2cnccc12 (centres unmarked) [Compound 9]
93.5 ± 9.7 µM	CCc1c(-c2csc(C3COCCN3)n2)[nH]c(C)c1C(C)=O (centres unmarked) [Compound 52]
46.6 ± 2.5 µM	CCc1c(-c2csc(N3CCN(CC4CCN(CC)CC4)CC3)n2)[nH]c(C)c1C(C)=O [Compound 87]
12.9 ± 2 µM	CCc1c(-c2csc(N3CCN(Cc4c[nH]c5ncncc45)CC3)n2)[nH]c(C)c1C(C)=O [Compound 95]
76.2 ± 8.6 µM	CCc1c(-c2csc(N)n2)[nH]c(C)c1C(C)=O [Compound 43]
109 ± 12.3 µM	CCc1c(-c2csc(CCNC)n2)[nH]c(C)c1C(C)=O [Compound 45]
11 ± 0.2 µM	CCc1c(-c2csc(N3CCNCC3C(=O)NCCC(F)(F)F)n2)[nH]c(C)c1C(C)=O (centres unmarked) [Compound 111]
33.2 ± 0.3 µM	CCc1c(-c2csc(N=C(N)N)n2)[nH]c(C)c1C(C)=O [Compound 25]
94.6 ± 11.7 µM	CCc1c(-c2csc(C3CCNCC3)n2)[nH]c(C)c1C(C)=O [Compound 48]
74.2 ± 9.1 µM	CCc1c(-c2csc(CN3CCOCC3)n2)[nH]c(C)c1C(C)=O [Compound 59]

IC50	Structure (SMILES)
76.8 ± 6.4 µM	CCc1c(-c2csc(C3CCCCN3)n2)[nH]c(C)c1C(C)=O (centres unmarked) [Compound 50]
42 ± 5.2 µM	CCc1c(-c2csc(N3CCNCC3C(=O)NC(CO)CO)n2)[nH]c(C)c1C(C)=O (centres unmarked) [Compound 112]
10.6 ± 0.2 µM	CCc1c(-c2csc(N3CCNCC3C(=O)NC3(Cc4ccccc4Br)CC3)n2)[nH]c(C)c1C(C)=O (centres unmarked) [Compound 102]
> 200 µM	C/N=C(/NC)NC1CCN(c2cc(OC)cc(OC)c2)CC1 [Compound 11]
60.5 ± 9.4 µM	CCc1c(-c2csc(CN3CCC(N)CC3)n2)[nH]c(C)c1C(C)=O [Compound 63]
53.9 ± 0.2 µM	CCc1c(-c2csc(NC3CCNCC3)n2)[nH]c(C)c1C(C)=O [Compound 62]
75.7 ± 9.2 µM	CCc1c(-c2csc(CN3CCN(C(C)=O)CC3)n2)[nH]c(C)c1C(C)=O [Compound 64]
44.6 ± 5.6 µM	Cc1[nH]c(-c2csc(N3CCNCC3)n2)c2c1C(=O)CCC2(C)C [Compound 82]
22 ± 2.3 µM	CCc1c(-c2csc(N3CCNCC3C(=O)NCC(N)=O)n2)[nH]c(C)c1C(C)=O (centres unmarked) [Compound 110]
10.9 ± 0.2 µM	Cc1[nH]c(-c2csc(N3CCN(Cc4c[nH]c5ncncc45)CC3)n2)c2c1C(=O)CCC2 [Compound 99]
99.7 ± 10.9 µM	CCc1c(-c2csc(C3(N)CCCC3)n2)[nH]c(C)c1C(C)=O [Compound 66]
14.1 ± 0.2 µM	CCc1c(-c2csc(N3CCNCC3C(=O)NCC(F)(F)F)n2)[nH]c(C)c1C(C)=O (centres unmarked) [Compound 107]
11.4 ± 0.3 µM	Cc1[nH]c(-c2csc(N3CCNCC3)n2)c2c1C(=O)CCC2 [Compound 80]
57.9 ± 6 µM	CCc1c(-c2csc(CCCN)n2)[nH]c(C)c1C(C)=O [Compound 44]
33.2 ± 0.3 µM	CCc1c(-c2csc(N3CCNCC3C(=O)NCCc3cc4ccccc4[nH]3)n2)[nH]c(C)c1C(C)=O (centres unmarked) [Compound 105]
> 100 µM	CCc1c(-c2csc(N3CCNCC3)n2)[nH]c(C)c1C(N)=O [Compound 74]
> 100 µM	CCc1c(-c2csc(C3CCN(C(N)=O)C3)n2)[nH]c(C)c1C(C)=O (centres unmarked) [Compound 56]
31.3 ± 0.7 µM	CCc1c(-c2csc(N3CCNCC3C(=O)NCCCCO)n2)[nH]c(C)c1C(C)=O (centres unmarked) [Compound 109]
11.8 ± 0.3 µM	Cc1[nH]c(-c2csc(N3CCNCC3)n2)c2c1C(=O)CC(C)(C)C2 [Compound 81]
114 ± 22.1 µM	CCc1c(-c2csc(C3CCN(C(C)=O)C3)n2)[nH]c(C)c1C(C)=O (centres unmarked) [Compound 55]

IC50	Structure (SMILES)
40.1 ± 3.4 µM	CC(=O)c1c(C)[nH]c(-c2csc(N3CCNCC3)n2)c1C1CCCC1 [Compound 78]
54 ± 0.2 µM	CCc1c(-c2csc(CN3CCNCC3)n2)[nH]c(C)c1C(C)=O [Compound 61]
42.9 ± 4.6 µM	CCc1c(-c2csc(N3CCN(Cc4cn(CC(N)=O)nn4)CC3)n2)[nH]c(C)c1C(C)=O [Compound 88]
54 ± 0.3 µM	CC(=O)c1c(C)[nH]c(-c2csc(CN3C(=O)CNC3=O)n2)c1C [Compound 65]
85.1 ± 6.8 µM	CCc1c(-c2csc(N3CCN(Cc4conc4COC)CC3)n2)[nH]c(C)c1C(C)=O [Compound 96]
13.1 ± 0.9 µM	CCc1c(-c2csc(N3CCN(Cc4n[nH]cc4C)CC3)n2)[nH]c(C)c1C(C)=O [Compound 92]
> 200 µM	CC(=O)N1CCN(c2ccc(NC(=N)N)cc2)CC1 [Compound 18]
47 ± 5 µM	CCc1c(-c2csc(C3CCCNC3)n2)[nH]c(C)c1C(C)=O (centres unmarked) [Compound 49]
29.2 ± 0.3 µM	Cc1[nH]c(-c2csc(NC(=N)N)n2)c2c1C(=O)CC(C)(C)C2 [Compound 84]
14 ± 0.3 µM	CCc1c(-c2csc(N3CCNCC3C(=O)NCC(C)(C)C)n2)[nH]c(C)c1C(C)=O (centres unmarked) [Compound 113]
54 ± 0.2 µM	CCc1c(-c2csc(C3CCNC3)n2)[nH]c(C)c1C(C)=O (centres unmarked) [Compound 53]
11 ± 0.2 µM	Cc1[nH]c(-c2csc(NC(=N)N)n2)c2c1C(=O)CCC2 [Compound 83]
54.6 ± 7.1 µM	CCc1c(-c2csc(-c3cnc[nH]3)n2)[nH]c(C)c1C(C)=O [Compound 72]
61.3 ± 10.6 µM	CCc1c(-c2csc(C3(NC(C)=O)CCNC3)n2)[nH]c(C)c1C(C)=O (centres unmarked) [Compound 54]
35.1 ± 0.2 µM	CCc1c(-c2csc(N3CCNCC3C(=O)NCC(C)(C)CC)n2)[nH]c(C)c1C(C)=O (centres unmarked) [Compound 108]
> 200 µM	NCc1ccc(N2CCNC(=O)C2)cc1 [Compound 14]
93.2 ± 10.1 µM	CCc1c(-c2csc(C3CCCN3C(C)=O)n2)[nH]c(C)c1C(C)=O (centres unmarked) [Compound 57]
36.5 ± 4.1 µM	CCc1c(-c2csc(N3CCNCC3C(=O)NC3(c4ncccc4F)CC3)n2)[nH]c(C)c1C(C)=O (centres unmarked) [Compound 100]

Same assay, conditions: single dose, compound concentration 500 μM; read-out: % residual BAZ2A activity

remaining binding at 500 µM	Structure (SMILES)
49 ± 7%	NC1CCCN(S(=O)(=O)c2cccc3cnccc23)C1 (centres unmarked) [Compound 8]
44 ± 3%	O=S(=O)(NC1CCNC1)c1cccc2cnccc12 (centres unmarked) [Compound 9]
5 ± 0.6%	CCc1c(-c2csc(N=C(N)N)n2)[nH]c(C)c1C(C)=O [Compound 25]
48 ± 5%	C/N=C(/NC)NC1CCN(c2cc(OC)cc(OC)c2)CC1 [Compound 11]
71 ± 3%	NC1CCN(C(=O)c2ccc(=O)[nH]c2)CC1 [Compound 36]
37 ± 4%	CC(=O)N1CCN(c2ccc(NC(=N)N)cc2)CC1 [Compound 18]
75 ± 2%	NC(=O)c1cc(OC2CCNCC2)ccn1 [Compound 13]
32 ± 4%	NCc1ccc(N2CCNC(=O)C2)cc1 [Compound 14]

Same assay, conditions: tested at 500 μM, single dose in duplicate

decrease of binding of BAZ2A bromodomain to the acetylated peptide	Structure (SMILES)
at least 50%	NC1CCCN(S(=O)(=O)c2cccc3cnccc23)C1 (centres unmarked) [Compound 8]
at least 50%	O=S(=O)(NC1CCNC1)c1cccc2cnccc12 (centres unmarked) [Compound 9]
at least 50%	CCc1c(-c2csc(N=C(N)N)n2)[nH]c(C)c1C(C)=O [Compound 25]
at least 50%	C/N=C(/NC)NC1CCN(c2cc(OC)cc(OC)c2)CC1 [Compound 11]
at least 50%	CC(=O)N1CCN(c2ccc(NC(=N)N)cc2)CC1 [Compound 18]
at least 50%	NCc1ccc(N2CCNC(=O)C2)cc1 [Compound 14]

Biological target: T1, BAZ2A bromodomain
Test: as above
Conditions: single dose 100 μM; IC50 not determined; read-out: Residual activity when tested in single dose

remaining binding at 100 µM	Structure (SMILES)
> 50%	CCCNC(=O)c1c(C)[nH]c(-c2csc(N3CCNCC3)n2)c1CC [Compound 75]
> 50%	CCc1c(-c2csc(N3CCN(Cc4c[nH]c(=O)[nH]c4=O)CC3)n2)[nH]c(C)c1C(C)=O [Compound 93]
> 50%	CCc1c(-c2csc(N3CCN(Cc4cnn5c4OCCC5)CC3)n2)[nH]c(C)c1C(C)=O [Compound 89]
> 50%	CCc1c(-c2csc(N3CCNCC3C(=O)NCC3CC(C)C3)n2)[nH]c(C)c1C(C)=O (centres unmarked) [Compound 114]
> 50%	CCc1c(-c2csc(N3CCNCC3C(=O)NC3CCC(C(N)=O)CC3)n2)[nH]c(C)c1C(C)=O (centres unmarked) [Compound 103]
> 50%	CCc1c(-c2csc(N3CCN(Cc4cc(S(N)(=O)=O)co4)CC3)n2)[nH]c(C)c1C(C)=O [Compound 91]
> 50%	CCc1c(-c2csc(N3CCN(Cc4cnc(N)nc4)CC3)n2)[nH]c(C)c1C(C)=O [Compound 94]
> 50%	CCc1c(-c2csc(N3CCNCC3C(=O)NCc3ncoc3C(C)C)n2)[nH]c(C)c1C(C)=O (centres unmarked) [Compound 101]
> 50%	CCc1c(-c2csc(N3CCN(Cc4ccsc4S(N)(=O)=O)CC3)n2)[nH]c(C)c1C(C)=O [Compound 90]
> 50%	CC(=O)c1c(C)[nH]c(-c2csc(N3CCNCC3)n2)c1-c1ccnn1C [Compound 76]
> 50%	CCc1c(-c2csc(N3CCNCC3C(=O)NCC3CC4(CCC4)C3)n2)[nH]c(C)c1C(C)=O (centres unmarked) [Compound 106]

System: BAZ2A
Test: not given
Parameters: method as in PMID 25799074, PMID 25719566
Conditions: cited from earlier work

Structure (SMILES)	affinity for BAZ2A (in words)
CCCOc1ccn2c(C(C)=O)cc(-c3ccccc3S(C)(=O)=O)c2c1 [GSK2801]	very high nanomolar range
Cn1cc(CCn2cnc(-c3cnn(C)c3)c2-c2ccc(C#N)cc2)cn1 [BAZ2-ICR]	very high nanomolar range
